Experimental data taken from article PMC6978697 (The Journal of Pharmacology and Experimental Therapeutics, 2020).

Target: T1, HA-DOPr (HA-tagged δ opioid receptor) (Homo sapiens, UniProt P41143)
T1 construct: gene OPRD1; full-length wild type, HA-tagged
Experiment: [3H]-diprenorphine competition, HEK293 membranes
Format: binding
Conditions: read-out: [^3H]-Diprenorphine / pKi (converted)
Excerpt: [3H]-diprenorphine competition, HEK293 membranes on HA-DOPr (HA-tagged δ opioid receptor)

T1 sequence (P41143 whole entry, looked up): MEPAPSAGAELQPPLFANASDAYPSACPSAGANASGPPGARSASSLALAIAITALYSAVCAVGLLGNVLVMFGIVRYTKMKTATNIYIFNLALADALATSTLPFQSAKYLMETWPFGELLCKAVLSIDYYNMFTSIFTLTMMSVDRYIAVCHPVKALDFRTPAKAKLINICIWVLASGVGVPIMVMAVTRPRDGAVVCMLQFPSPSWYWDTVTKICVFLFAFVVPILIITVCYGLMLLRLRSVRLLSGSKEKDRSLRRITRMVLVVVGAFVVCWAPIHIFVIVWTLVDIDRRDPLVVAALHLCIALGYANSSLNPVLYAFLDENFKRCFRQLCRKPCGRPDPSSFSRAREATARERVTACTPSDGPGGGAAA

Q: Which Ki does the source give for `CN(C)C(=O)c1ccc(C(=C2CCN(Cc3cncs3)CC2)c2cccc(C(N)=O)c2)cc1` [PN6047, 3-[[4-(dimethylcarbamoyl)phenyl]-[1-(thiazol-5-ylmethyl)-4-piperidylidene]methyl]benzamide] here?
A: The Ki was 56.2 nM.
